System: P3H1 within the PCP complex
Experiment: 2-OG dependent oxygenase activity
Type: biochemical, human
Conditions: Succinate-Glo assay, Fig. 1g, Fig. 3f, Supplementary Fig. 1f

Substance	2OG-Fe (II) oxygenase / P3H1 activity, in words	2OG-Fe (II) oxygenase / P3H1 activity, in words (listed as PPIB^R95A)	2OG-Fe (II) oxygenase / P3H1 activity, in words (listed as R95A)
PCP ternary complex: low molecular weight elution fractions corresponding to the PCP ternary complex	inhibited upon depletion of ferrous ions	–	–
PCP-PPIBR95A: PCP complex with PPIB enzymatic mutation at the PI-site, R95A	–	elevated P3H1 activities	enhancing P3H1 activities
cyclosporin A [CsA, reference compound]	hydroxylation enhancement was absent	–	–
peak HW: high molecular weight elution fractions corresponding to the PCP dual-ternary complex	slightly lower P3H1 activity	–	–
